Molecules are shown by their SMILES.

The data set is described as follows: gradient 5% acetonitrile 3 min, to 50% in 2 min, to 85% in 15 min, held 3 min, 100 µL/min. Conditions: column: Zorbax Extend-C18 2.1 x 50 mm; eluents: water / acetonitrile, 0.1% formic acid. Put shortly: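 Pure standards were analyzed in mixtures of ~100 molecules using HPLC coupled to a quadrupole time-of-flight mass spectrometer, in both positive and negative ionization mode. Separation used a Zorbax Extend-C18 column (2.1 × 50 mm, 1.8 μm) at 100 μL/min, with water and acetonitrile each containing 0.1% formic acid. Dead and dwell volumes were 40 μL and 900 μL, and data were collected over 3 months. Retention time was read from computationally picked adduct peaks, each inspected manually.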
On to `O=C1CCc2cc(NS(=O)(=O)/C=C/c3ccccc3)ccc2N1`, for which the RP-LC retention time came out at 681 s.
`CCC(C)NC(=O)N1CCN(Cc2nc3cc(C(C)(C)C)ccc3o2)CC1` (centres undefined) had an RP-LC retention time of 758 s.
Take `Cc1ccc2cccc(OC(=O)N3CCCCCC3)c2n1`: the RP-LC retention time was 789 s.
In turn, `O=C(Nc1ccc(N2CCOCC2)cc1)C1CCCN(c2ccnc(-c3cccc(F)c3)n2)C1` (centres undefined) returned an RP-LC retention time of 649 s.
`Cc1nc(N2CCOCC2)c2c(C(=O)Nc3cccc(C(F)(F)F)c3)c(C)oc2n1` showed an RP-LC retention time of 955 s.
The compound `CCOC(=O)c1c[nH]c2c(C(=O)OCC)cccc2c1=O` showed an RP-LC retention time of 735 s.
As for `COCCOC1CCN(C(=O)Nc2ccc3c(c2)OCCO3)CC1`, the RP-LC retention time stood at 668 s.
For the compound `CCOC(=O)c1nc(Nc2ccc(OC)c(OC)c2)c2ccccc2n1`, the RP-LC retention time stood at 736 s.
Under `CCc1nc(OCC(=O)N(C)c2ccccc2)c2ccccc2n1` stands 756 s; under `COc1ccc(C)cc1NC(=O)Cn1cnc2nc(N3CCC(C(=O)NC4CC4)CC3)sc2c1=O`, 723 s; under `c1ccc(SCc2nnc3sc(-c4cnccn4)nn23)cc1`, 774 s.
For `CCN1CCCC1CN(CC(=O)N1CCNCC1)S(=O)(=O)c1cc(Cl)ccc1OC` (centres undefined) the value was 573 s; for `C[C@H]1CN(S(=O)(=O)c2ccccc2F)C[C@@H]1c1nc(-c2ccncc2)no1`, 884 s; for `Cc1cnc(C(=O)N2CCC(N3C(=O)C(OCC4CC4)C34CCOCC4)CC2)cn1` (centres undefined), 618 s.
Take `Cn1ncc2c3ccccc3n(CCCC(=O)NCCc3ccccc3)c2c1=O`: the RP-LC retention time worked out at 845 s.
With `CC(C)c1ccc(OCC(=O)Nc2cc3c(cc2N2CCOCC2)n(C)c(=O)c(=O)n3C)cc1`, the RP-LC retention time came out at 921 s.
In turn, `Cn1cc2c3c(cccc31)CN(C(=O)Cc1ccccc1F)CC2` displayed an RP-LC retention time of 954 s.
For `O=C(c1nccc2ccccc12)N1C[C@@H](CO)[C@H](c2ccccn2)C1` the value was 578 s.
The compound `CC1CCN(c2ccc(-c3noc(CCC(=O)N4CCN(C5CCCCC5)CC4)n3)cc2)CC1` displayed an RP-LC retention time of 733 s.
Under `CCCCN1CCN(C(=O)c2cc(-c3ccncc3)cn2Cc2ccccc2C)CC1` stands 576 s.
The compound `Cc1cc(NS(=O)(=O)c2ccc(Nc3nc(-c4ccc(C(C)C)cc4)cs3)cc2)no1` had an RP-LC retention time of 1160 s.
Compound `Cc1nn(C)cc1C(=O)Nc1nc2ccccc2[nH]1` displayed an RP-LC retention time of 537 s.
Consider `CCC(=O)N1CCCC1c1nc(CCOCC2CCCC2)no1` (centres undefined), for which the RP-LC retention time is 837 s.
`Cc1cc(COC(=O)c2cc3ccccc3o2)no1` had an RP-LC retention time of 866 s.
`COCCNC(=O)CSc1cc(N2CCN(c3ccccc3OC)CC2)ncn1` had an RP-LC retention time of 698 s.
Consider `Cc1c(S(=O)(=O)N2CCC(Cc3ccccc3)CC2)c(=O)n(C)c(=O)n1C`, for which the RP-LC retention time worked out at 870 s.
`Cn1nc(N2CCCC(NC(=O)c3cc4cc(Cl)ccc4[nH]3)C2)ccc1=O` (centres undefined): the RP-LC retention time was determined as 827 s.
Consider `Cc1nc2ccccc2c(=O)n1Cc1noc(-c2ccc(C(F)(F)F)cc2)n1`, for which the RP-LC retention time worked out at 987 s.
`CCc1ccc(NC(=O)C2CCCN(S(=O)(=O)c3cc(-c4noc(C)n4)cs3)C2)cc1` (centres undefined) displayed an RP-LC retention time of 992 s.
On to `CCOC(=O)c1c(C)[nH]c(C(=O)N2CCC(CC(=O)NCCN3CCOCC3)CC2)c1C`, for which the RP-LC retention time came out at 575 s.
`CCc1nc(-c2csc(S(=O)(=O)N3CCC(C(=O)Nc4cc(C)cc(C)c4)CC3)c2)no1` yielded an RP-LC retention time of 1090 s.
The compound `O=C(Cn1nc(N2CCOCC2)c2ccccc2c1=O)N1CCN(c2ccccc2)CC1` had an RP-LC retention time of 800 s.
For `O=C(Cc1csc2nc(-c3ccccc3)cn12)NCc1cccc(Br)c1`, the RP-LC retention time was 872 s.
With `Cc1nc(-c2ccc(F)cc2)sc1C(=O)N[C@@H](Cc1c[nH]c2ccccc12)C(=O)O`, the RP-LC retention time came to 838 s.
Take `O=C(Cc1ccccc1F)N1CCN(c2cc(-c3cccs3)[nH]n2)CC1`: the RP-LC retention time was 794 s.
`O=C(Cn1nc2c(cc1=O)CCCCC2)Nc1cccc(N2CCCCS2(=O)=O)c1`: the RP-LC retention time turned out to be 762 s.
For the compound `O=C(c1ccncn1)N1C[C@@H](COCC2CC2)[C@H](c2ccccn2)C1`, the RP-LC retention time turned out to be 604 s.
`CCOC(=O)c1ccc(NS(=O)(=O)c2ccc(-c3c(C)noc3C)cc2)cc1` returned an RP-LC retention time of 941 s.
Under `Cc1cccc(NC(=O)Cn2nc(N3CCOCC3)c3ccccc3c2=O)c1` stands 783 s.
Consider `COc1cc(-c2noc(CCn3nc(-c4ccccc4)ccc3=O)n2)cc(OC)c1OC`, for which the RP-LC retention time came to 955 s.
Under `O=C(Nc1cccs1)N1CC(c2nc(C3CC3)no2)C1` stands 681 s; under `COc1ccc(Cl)cc1NC(=O)Cc1csc2nc(-c3ccc(C)c(C)c3)cn12`, 985 s; under `CC(=O)/C=C1\SC(CC(=O)O)C(=O)N1c1ccccc1` (centres undefined), 631 s.
For `O=C(c1ccc2c(c1)OCO2)N1CCCn2nc(-c3cccs3)cc2C1` the value was 796 s; for `CCOC(=O)C1CCN(c2nc(=O)n(CC(=O)Nc3cccc(C)c3)c3ccccc23)CC1`, 833 s.
Take `COc1ccc(S(=O)(=O)N2CCC3(CC2)CC(C)(O)CCO3)cc1` (centres undefined): the RP-LC retention time was 752 s.
For `CCCc1noc(-c2nnn3c2COC(c2ccc(F)cc2)C3)n1` (centres undefined) the value was 1040 s; for `Cc1cc(C)n2nc(SCC(=O)Nc3ccc(C)c(C)c3)nc2n1`, 764 s; for `CCOc1ccc(C(=O)NC2CCN(c3cc(-c4ccc(OC)cc4)[nH]n3)C2)cc1` (centres undefined), 725 s.
On to `O=c1ccc(-c2cccc(Cl)c2)nn1Cc1nc(-c2cccs2)no1`, for which the RP-LC retention time was 1000 s.
Under `CN1CC2(CCCC2)N(C(=O)COc2ccc(Cl)cc2)CC1=O` stands 799 s; under `Cn1nc(-c2nnc(-c3ccc(F)cc3)o2)c2c1CCN(S(=O)(=O)c1ccc(Cl)s1)C2`, 1010 s.
`O=C(NCC1CCN(Cc2ccccc2)CC1)C(=O)Nc1ccc(F)cc1F` yielded an RP-LC retention time of 573 s.
For `O=C(Nc1nnc(SCc2nnc(-c3ccccc3)o2)s1)c1ccccc1`, the RP-LC retention time worked out at 866 s.
`CCn1c(=O)oc2cc(-c3noc(-c4ccc(Cl)cc4OC)n3)ccc21`: the RP-LC retention time was 1170 s.
For `O=C(Nc1ccc2c(c1)OCCO2)Nc1ccc2nc3n(c(=O)c2c1)CCC3`, the RP-LC retention time worked out at 654 s.
`Cc1nn(CC(=O)NC(C)(C)C)c(C)c1S(=O)(=O)N1CCC(C(=O)N2CCC(C)CC2)CC1` displayed an RP-LC retention time of 794 s.
For the compound `CC(C)(C)OC(=O)N1CCN(CCNC(=O)CSc2nc3ccccc3o2)CC1`, the RP-LC retention time was 595 s.
Turning to `Cc1cc(N2CCOCC2)nc(N2CCN(S(=O)(=O)c3ccc(-c4ccccc4)cc3)CC2)n1`, the RP-LC retention time is 803 s.

The values above are taken from the METLIN SMRT retention time set (Domingo-Almenara et al. 2019).
